Results as given in ChEMBL document CHEMBL1201862, “PubChem BioAssay data set” (2004).
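How tested: cells in 96-well plates exposed to compound for 48 hours at five concentrations. GI50 = concentration required for 50% inhibition of growth.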 The source made the active and inactive calls. Cut-off read from the data, not from the text of the source: active = GI50 up to about 1.1 µM and inactive = higher.

Experiments:
Test in all cases: DTP human tumour cell line panel, 48 h
[1] = system: A498
[2] = system: ACHN
[3] = system: COLO 205
[4] = system: DU-145
[5] = system: EKVX
[6] = system: HOP-62
[7] = system: HT-29
[8] = system: K562
[9] = system: MDA-MB-231
[10] = system: NCI/ADR-RES
[11] = system: OVCAR-3
[12] = system: OVCAR-5
[13] = system: OVCAR-8
[14] = system: SF-295
[15] = system: SK-MEL-28
[16] = system: SNB-19
[17] = system: PC-3
[18] = system: UO-31
[19] = system: RPMI-8226
[20] = system: Hs-578T

Measured: GI50

COc1ccc(-c2c(C(C)=O)c(-c3ccccc3)n(C3OC(COC(C)=O)C(OC(C)=O)C(OC(C)=O)C3OC(C)=O)c(=S)c2C#N)cc1 (centres undefined)
inactive: [1] > 100 µM | [2] > 100 µM | [3] > 100 µM | [4] > 100 µM | [5] > 100 µM | [6] > 100 µM | [7] > 100 µM | [8] > 100 µM | [9] > 100 µM | [10] > 100 µM | [11] > 100 µM | [12] > 100 µM | [13] > 100 µM | [14] > 100 µM | [15] > 100 µM | [16] > 100 µM

NNC(=O)CNC(=O)CSc1nnc(COc2ccc(Cl)cc2)n1-c1ccccc1
inactive: [1] > 100 µM | [2] > 100 µM | [3] > 100 µM | [4] > 100 µM | [5] > 100 µM | [6] > 100 µM | [7] > 100 µM | [8] > 100 µM | [9] > 100 µM | [10] > 100 µM | [11] > 100 µM | [12] > 100 µM | [13] > 100 µM | [17] > 100 µM | [14] > 100 µM | [15] > 100 µM | [16] > 100 µM | [18] > 100 µM

O=[N+]([O-])c1ccc(C2N3CCCCC3[C@H]3CCCCN23)cc1 (some centres undefined)
inactive: [1] > 100 µM | [2] > 100 µM | [3] > 100 µM | [5] > 100 µM | [6] > 100 µM | [7] > 100 µM | [8] > 100 µM | [11] > 100 µM | [12] > 100 µM | [13] > 100 µM | [19] > 100 µM | [14] > 100 µM | [15] > 100 µM | [16] > 100 µM | [18] > 100 µM

O=C1CCc2ccc(O)c(c2)Oc2ccc(cc2)[C@@H]2O[C@@H]2CO1
inactive: [1] 29 µM | [2] 61.8 µM | [3] 98.9 µM | [5] 59.8 µM | [6] > 100 µM | [7] 89.3 µM | [8] 24.6 µM | [11] 32.8 µM | [12] 54.2 µM | [13] 75.5 µM | [19] 28.9 µM | [14] 56.1 µM | [15] 49.2 µM | [16] 82.6 µM | [18] 23.8 µM

CC(=O)c1c(C)[n+]([O-])c2cc(C)c(C)cc2[n+]1[O-]
inactive: [1] > 100 µM | [2] > 100 µM | [3] > 100 µM | [5] > 100 µM | [6] > 100 µM | [7] 65.8 µM | [8] > 100 µM | [11] > 100 µM | [12] > 100 µM | [13] > 100 µM | [19] > 100 µM | [14] > 100 µM | [15] > 100 µM | [16] > 100 µM | [18] > 100 µM

C[C@@H]1CC[C@@H]2[C@@H](C1)O[C@@H]([C@@H](C)OCc1ccccc1)SC2(C)C
inactive: [1] 17.3 µM | [2] 17.3 µM | [3] 17.6 µM | [4] 30.8 µM | [5] 31.8 µM | [6] 16.4 µM | [7] 18.8 µM | [8] 18.1 µM | [9] 21.5 µM | [10] 20.1 µM | [12] 18.3 µM | [13] 22.4 µM | [17] 19.5 µM | [19] 16.5 µM | [14] 16.6 µM | [15] 24.7 µM | [16] 19 µM | [18] 16.4 µM

O=C(NCc1ccccc1)C1C(=O)C(=O)N(Cc2ccccc2)C1=O (centres undefined)
inactive: [1] > 100 µM | [2] > 100 µM | [3] > 100 µM | [5] > 100 µM | [6] > 100 µM | [7] > 100 µM | [8] > 100 µM | [11] > 100 µM | [12] > 100 µM | [13] > 100 µM | [19] > 100 µM | [14] > 100 µM | [15] > 100 µM | [16] > 100 µM | [18] > 100 µM

COC(=O)c1cc(Br)c(C(=O)C(Cl)(Cl)Cl)[nH]1
inactive: [1] > 100 µM | [2] > 100 µM | [3] > 100 µM | [4] > 100 µM | [5] > 100 µM | [6] > 100 µM | [7] > 100 µM | [8] > 100 µM | [9] > 100 µM | [10] > 100 µM | [11] > 100 µM | [12] > 100 µM | [13] > 100 µM | [17] > 100 µM | [19] > 100 µM | [14] > 100 µM | [15] > 100 µM | [16] > 100 µM | [18] > 100 µM

C/C(=C\C(C)COCc1ccccc1)[C@H](COCc1ccccc1)OCc1ccccc1 (some centres undefined)
inactive: [1] > 100 µM | [2] > 100 µM | [3] > 100 µM | [5] > 100 µM | [6] > 100 µM | [7] > 100 µM | [8] 73.1 µM | [11] > 100 µM | [12] > 100 µM | [13] > 100 µM | [19] 50.1 µM | [14] > 100 µM | [15] > 100 µM | [16] > 100 µM | [18] 83.9 µM

COc1ccc(C2C3=C(CCCC3=O)N(c3ccccc3)C3=C2C(=O)CCC3)cc1
inactive: [1] > 100 µM | [2] > 100 µM | [5] > 100 µM | [7] > 100 µM | [20] 43.2 µM | [8] > 100 µM | [10] > 100 µM | [11] 89.7 µM | [12] > 100 µM | [17] > 100 µM | [19] > 100 µM | [15] > 100 µM | [16] 58.9 µM | [18] > 100 µM

O=C(NCc1ccccc1)c1cc2ccc(O)c(O)c2cn1
inactive: [1] > 100 µM | [2] 15.5 µM | [3] 32.1 µM | [5] > 100 µM | [6] 21.3 µM | [7] 44.1 µM | [8] 33.8 µM | [11] 18.2 µM | [12] 26 µM | [13] 11.2 µM | [19] 19.1 µM | [14] 16.9 µM | [15] 16.4 µM | [16] 35.4 µM | [18] 18.1 µM

O=C1CCCC1CC(CN1CCOCC1)Sc1nnnn1-c1ccccc1 (centres undefined)
inactive: [1] > 100 µM | [2] 31 µM | [3] 16.6 µM | [4] 77.4 µM | [5] 28.9 µM | [6] > 100 µM | [7] 31 µM | [8] > 100 µM | [9] 72.3 µM | [10] > 100 µM | [11] > 100 µM | [12] 72.6 µM | [13] > 100 µM | [17] > 100 µM | [19] 42.1 µM | [14] > 100 µM | [15] > 100 µM | [16] > 100 µM | [18] 96.8 µM
